Reference: US20180135022A1, “METHOD FOR PRODUCING ARTIFICIAL SYNCYTIOTROPHOBLAST AND PROGENITOR CELL THEREOF” (Sumitomo Chemical Company, Limited, priority 2015, published 2018)
Where two headings read alike, the source gives them in different places.

Columns and labels:
[1] = tested on: cell layer of cells differentiated from 201B7 cells; conditions: human, 120 min
Procedure: (§1) The culture medium in the insert and in the multiple well plate was replaced by Hanks' Balanced Salt Solution (HBSS) (no phenol red, Life Technologies), and incubated for 30 minutes to 45 minutes at 37° C. […] The culture medium in the insert (apical side) is replaced by HBSS containing a test substance, and cultured at 37° C. under stirring at 300 rpm.
(§2) After 120 minutes from addition of the test substance, 100 μl of HBSS containing the test substance was collected from inside the multiple well plate, and the same amount of HBSS was added to the collected HBSS. By quantifying the test substance in the culture medium in the multiple well plate by LC-MS, the permeability of the test substance in the cell layer was evaluated. A value obtained by dividing the permeation amount of each test substance by the permeation amount of antipyrine is shown as an in vitro relative permeation amount in Table 5.

[2] = tested on: term placenta; conditions: cited from earlier work
[3] = tested on: cell layer of cells differentiated from KhES-1 cells; conditions: human, 120 min
Procedure: (§3) After two days from the seeding to the cell culture insert, the electric resistance (Ω) of the cell layer formed on the cell culture insert was measured by using a Millicell ERS-2 (Millipore), and from the obtained measurement value, the electric resistance of the blank in which cells are not seeded was subtracted, and the resultant value was multiplied with the area of the membrane filter (cm^2) to determine a transepithelial electric resistance (TEER, Ω·cm^2).
(§4) The culture medium in the insert and in the multiple well plate was replaced by Hanks' Balanced Salt Solution (HBSS) (no phenol red, Life Technologies), and incubated for 30 minutes to 45 minutes at 37° C. 5% CO2. The culture medium in the insert (apical side) is replaced by HBSS containing a test substance, and cultured at 37° C. under stirring at 300 rpm.
(§5) After 120 minutes from addition of the test substance, 100 μl of HBSS containing the permeated test substance was collected from inside the multiple well plate, and the same amount of HBSS was added to the collected HBSS. By quantifying the test substance in the culture medium in the multiple well plate by LC-MS, the permeability of the test substance in the cell layer was evaluated. A value obtained by dividing the permeation amount of each test substance by the permeation amount of antipyrine is shown as an in vitro relative permeation amount in Table 4.

[4] = tested on: KhES-1 cells; assay: Syncytin gene mRNA by real-time PCR after differentiation culturing, Example 3; format: cell-based, human; conditions: single agent added to Basal differentiation medium B (0.1 μM S26948, 10 μM GW 1929, 0.1 μM CGP 7930, 10 nM SR 11237 or 1 nM retinoic acid), day 5; in comparison with Control
Procedure: According to the method described in (1) in Example 2, KhES-1 cells were maintenance cultured, and then subjected to the MEF removing operation. […] S26948, GW 1929, CGP 7930 and SR 11237 were dissolved in DMSO so that they were respectively 100 mM, and retinoic acid was dissolved in DMSO so that it was 10 mM, and each DMSO solution was added to Basal differentiation medium B.
On day 5 of the culturing of the culture using the differentiation medium, total RNA was extracted from cells by using RNeasy Micro Kit (QIAGEN). The obtained total RNA was reverse transcribed by using SuperScript III (Invitrogen), and by real-time PCR using the obtained DNA as a template, TaqMan probe (Applied biosystems) and TaqMan Fast advanced master mix (Applied biosystems), the expression amount of Syncytin gene which is a marker gene of syncytiotrophoblast was examined. For the cells obtained in each culturing, the mRNA amount of Syncytin gene and the mRNA amount of GAPDH gene which is a house keeping gene were determined by real-time PCR. The value obtained by dividing the mRNA amount of Syncytin gene by the mRNA amount of GAPDH gene is defined as a correction value of mRNA amount of Syncytin gene, and taking the Syncytin gene mRNA amount correction value in cells cultured in Basal differentiation medium B (Control) as 1, a Syncytin gene mRNA amount correction value in cells cultured in each of other culture media was shown as a relative expression amount. The operation from the cell culturing to measurement of mRNA amount was repeated three times. In FIG. 2, a standard error of relative expression amount is indicated by an error bar. The relative expression amount having a statistically significant difference with respect to the relative expression amount of Control is marked with asterisks (** means a P value of 0.001 or more and less than 0.01, and *** means a P value of less than 0.001). In comparison with the cells cultured in Basal differentiation medium B (Control), the relative expression amount of Syncytin gene increased in cells that were cultured in a differentiation medium supplemented with either of S26948 (2-1) or GW 1929 (2-2) that is a PPARγ agonist, CGP 7930 (2-3) that is a GABABR positive allosteric modulator, SR 11237 (2-4) that is an RXR agonist or retinoic acid (2-5) that is an RAR agonist.

[5] = tested on: GCM1-GFP knock-in human ES cells; assay: Percentage of GFP positive cells (GCM1 gene expression) after differentiation culturing, Example 2; format: cell-based; conditions: day 6
Procedure: S26948, GW 1929, CGP 7930 and SR 11237 were dissolved in DMSO so that they were respectively 1 mM, and retinoic acid was dissolved in DMSO so that it was 10 mM, and each DMSO solution was added to Basal differentiation medium A.
On day 6 of the culturing using the differentiation medium, cells were washed twice with PBS (Invitrogen), and fixed with 4% paraformaldehyde (Wako) for 15 minutes. After subjecting the cells to a membrane permeabilizing treatment for 5 minutes by using PBS supplemented with 0.3% Triton X-100 (Wako), the cells were washed three times with PBS. Then after blocking the cells for 1 hour to 2 hours with 3% Bovine Serum Albumin (BSA, Sigma-Aldrich), the cells were immunostained by using 5 μg/ml chicken anti-GFP antibody (Abcam), 2 μg/ml goat anti-chicken IgG antibody Alexa 488 (Life technologies) and 1 μg/ml Hoechst 33342 (DOJINDO). For the obtained stained sample, the percentage of the GFP positive cells indicating expression of GCM1 gene was quantified by using a fully automatic image analyzer Arrayscan (Thermo Scientific).

[6] = tested on: cell layer of cells differentiated from KhES-1 cells; assay: Cell layer permeability test on cell culture insert, cells differentiated from human ES cells, Example 13; conditions: permeation amount after 120 minutes divided by that of antipyrine; apical side dosing, HBSS, LC-MS; cells from KhES-1
Procedure: as §3, §4, §5

[7] = tested on: cell layer of cells differentiated from 201B7 cells; assay: Cell layer permeability test on cell culture insert, cells differentiated from human iPS cells, Example 15; conditions: permeation amount after 120 minutes divided by that of antipyrine; apical side dosing, HBSS, LC-MS; cells from iPS line 201B7
Procedure: as §1, §2

[8] = tested on: GCM1-GFP knock-in human ES cells; assay: Percentage of GFP positive cells at different retinoic acid concentrations, Example 9; format: cell-based; conditions: day 5
[9] = 1 μM added to Basal differentiation medium A (3 ng/ml BMP4), in comparison with Control A (0.1% DMSO)
[10] = Table 4, excerpted from Li, H. et al. Arch. Toxicol. 2013
[11] = Table 5, excerpted from Li, H. et al. Arch. Toxicol. 2013

Compound: Cc1cc(=O)n(-c2ccccc2)n1C [Antipyrine]
- In vitro relative permeation amount [1]: 1
- Ex vivo relative permeation amount (literature value) [2]: 1
- In vitro relative permeation amount [3]: 1

Compound: CC(C)(CO)Cc1cc(C(C)(C)C)c(O)c(C(C)(C)C)c1 [CGP 7930]
- relative expression amount of Syncytin gene [4]: increased
- increase in the percentage of the GFP positive cells [5, 9]: about 20%

Compound: Cn1c(=O)c2c(ncn2C)n(C)c1=O [Caffeine]
- In vitro relative permeation amount [1]: 1.1
- Ex vivo relative permeation amount (literature value) [2, 10]: 1.5
- Ex vivo relative permeation amount (literature value) [2, 11]: 1.5
- In vitro relative permeation amount [3]: 1.4

Compound: C[C@H]1O[C@@H](O[C@H]2[C@@H](O)C[C@H](O[C@H]3[C@@H](O)C[C@H](O[C@H]4CC[C@@]5(C)[C@H](CC[C@@H]6[C@@H]5C[C@@H](O)[C@]5(C)[C@@H](C7=CC(=O)OC7)CC[C@]65O)C4)O[C@@H]3C)O[C@@H]2C)C[C@H](O)[C@@H]1O [Digoxin]
- Ex vivo relative permeation amount (literature value) [2, 10]: 0.13
- In vitro relative permeation amount [3]: 0.24

Compound: CN(CCOc1ccc(C[C@H](Nc2ccccc2C(=O)c2ccccc2)C(=O)O)cc1)c1ccccn1 [GW 1929]
- relative expression amount of Syncytin gene [4]: increased
- increase in the percentage of the GFP positive cells [5, 9]: about 20%

Compound: COc1ccc2c(c1)c(CC(=O)O)c(C)n2C(=O)c1ccc(Cl)cc1 [Indomethacin]
- In vitro relative permeation amount [6]: 0.72
- In vitro relative permeation amount [7]: 0.62
- Ex vivo relative permeation amount (literature value) [2, 10]: 0.66
- Ex vivo relative permeation amount (literature value) [2, 11]: 0.66

Compound: COC(=O)C(Cc1ccc(OCCn2c(=O)sc3cc(C(=O)c4ccccc4)ccc32)cc1)C(=O)OC [S26948]
- relative expression amount of Syncytin gene [4]: increased
- increase in the percentage of the GFP positive cells [5, 9]: about 20%

Compound: CC1(C)CCC(C)(C)c2cc(C3(c4ccc(C(=O)O)cc4)OCCO3)ccc21 [SR 11237]
- relative expression amount of Syncytin gene [4]: increased
- increase in the percentage of the GFP positive cells [5, 9]: about 20%

Compound: CC1=C(/C=C/C(C)=C/C=C/C(C)=C/C(=O)O)C(C)(C)CCC1 [retinoic acid]
- increase in the percentage of GFP positive cells ([8]; 1 nM or 10 nM retinoic acid in Basal differentiation medium B, compared with Control without retinoic acid): about 10%
- decrease in the percentage of GFP positive cells ([8]; 100 nM or more retinoic acid in Basal differentiation medium B, compared with Control): ≥ 10%
- increase in the percentage of the GFP positive cells ([5]; 1 nM retinoic acid (Table 1 prints 1 μM) in Basal differentiation medium A, compared with Control B (no retinoic acid)): about 6%
